# What was measured:
# [1] = test system: Non-Obese Diabetic (NOD) mice; assay: Prevention of glucosuria / Juvenile (Type I, IDDM) Diabetes in NOD mice; assay type: in vivo, mouse; conditions: for onset of glucosuria: assayed at week 16, untreated controls 100% glucosuria, data not shown; for Healthy/Total* (healthy and well = sugar not detected in urine): female NOD mice
# Procedure: Juvenile (Type I, IDDM) Diabetes in Non-Obese Diabetic (NOD) Mice:
# Peptides Derived from Natural Casein:
# NOD mice are a commonly used model for research of autoimmune disease and human Juvenile Diabetes. Six week old female NOD mice received either one or two injections per week of 100 μg of peptides derived from natural casein, for a total of 5 or 11 treatments. Control mice received no treatment. The severity of disease was determined according to glucosuria, which was measured using Combi test sticks [Gross, D. J. et al. (1994), Diabetology, 37:1195]. Results were expressed as the percent of glucosuria-free mice in each sample over a 365-day period.
# Synthetic Peptides Derived from Casein:
# In another experiment, 6 week old female NOD mice received one injection per week of 100 μg of Synthetic peptides derived from casein for a total of 5 treatments. Control mice received no treatment. Results were expressed as the number of healthy mice in the various treated groups.
# [2] = test system: human Peripheral Blood Stem Cells (PBSC); assay: Natural Killer (NK) cell activity in cultured human PBSC (lysis of K562 target cells); assay type: cell-based
# Procedure: Stimulation of Proliferation of Natural Killer (NK) Cells:
# From human Peripheral Blood Stem Cells (PBSC): PBSC of G-CSF treated subjects were separated on a FICOLL gradient, washed twice with RPMI-1640 medium and seeded into 1.5 ml wells with or without peptides derived from natural casein or synthetic peptides derived from casein, as indicated, (0-500 μg per ml). Following two days incubation the cells were assayed for Natural Killer activity by measuring radioactivity released from ^35S-labeled K562 target cells (NEG-7Q9A, 185.00 MBq, 2.00 mCi EASYTAGth Methionine, L-[^35S] 43.48 TBq per mmol, 1175.0 Ci per mmol, 0.488 ml, Boston USA). Two concentrations of effector cells ([…] cells per well) were incubated with 5×10^3 target cells per well (effector:target cell ratios of 50:1 and 100:1, respectively) in U-bottomed 96 well tissue culture plates. The cells were incubated for 5 hours at 37° C. in 5% CO2, 95% air and precipitated by 5 minutes centrifugation at 1000 rpm. ^35S release was measured in 50 μl samples of the supernatant liquid.
# [3] = test system: HIV-1IIIB; assay: Inhibition of HIV-1 infection of CEM lymphocytes (cell counts, P24 antigen assay); assay type: cell-based; conditions: for HIV-1 infection level, P24 antigen: untreated control 0.52
# Procedure: Inhibition of in vitro HIV infection of human lymphocyte cells:
# Peptides: Peptides (either peptides derived from natural casein or synthetic peptides derived from casein (1-25 amino acids in length, see table 3) supplied as lyophilized powder were resuspended in RPMI complete medium and added to cell cultures at a final concentrations of 50 to 1000 μg per ml.
# Cells: Several types of freshly isolated human cells (primary cells) and cell lines are known to be susceptible to in vitro HIV-1 infection, although essentially any cell displaying even low surface levels of the CD4 molecule can be considered a potential target for HIV-1 infection. Two commonly used human cell lines which are highly sensitive for HIV-1 infection were chosen, CEM and Sup-T1.
# CEM is a human T4-lymphoblastoid cell line initially derived by G. E. Foley et al. [(1965), Cancer 18:522] from peripheral blood buffy coat of a person with acute lymphoblastic leukemia. These cells were continuously maintained in suspension in medium, and have been used widely for analysis of infectivity, antiviral agents and neutralizing antibodies.
# Virus: The HIV virus strain employed was HIV-1IIIB, originally designated HTLV-IIIB. Concentrated culture fluids of peripheral blood from several patients with AIDS or related diseases were used to establish a permanent productive infection in H-9 cells. This subtype B virus has high capacity to replicate in human T-cell lines. Viral titer was 5.38 ng per ml in stock solution.
# HIV-1 P24 antigen capture assay: An HIV-1 P24 Antigen capture assay kit employed was designed to quantitate the HIV-1 P24 core antigen, which is proportionally related to the degree of viral production in cells. This kit was purchased from the AIDS Vaccine program of the SAIC-NCI-Frederick Cancer Research Institute, P.O. Box B, Frederick, Md. 21702, USA and included 96 well plates coated with monoclonal antibody to HIV-1 P24, primary antibody-rabbit anti-HIV P24 serum, secondary antibody-Goat anti-rabbit-IgG (H+ L) peroxidase conjugated antibody, TMB peroxidase substrate system and lysed HIV-1 P24 standard. The HIV-1 P24 antigen capture assay was analyzed by Organon-Technica ELISA reader at 450 nm with a reference at 650 nm.
# HIV-1 P24 antigen capture ELISA: HIV infection was measured with an indirect enzyme immunoassay which detects HIV-1 P24 core antigens in tissue culture media. Tissue culture supernatant was reacted with primary rabbit anti-HIV-1 P24 antigen and visualized by peroxidase conjugated goat anti rabbit IgG. The reaction was terminated by adding 4N H2SO4, wherein the intensity of the color developed is proportional to the amount of HIV-1 antigen present in the tissue culture supernatant.
# HIV infection of human cultured CD4+ cells: The cells (CEM, Sup-T1) were preincubated with several increasing concentrations of peptides derived from natural casein (50-1000 μg per ml) or synthetic peptides derived from casein (10-500 μg per ml) for 3, 24 (for synthetic and natural peptides) and 48 (only for natural peptides) hours and HIV-1IIIB (45 μg per ml final concentration) was added to each well thereafter. HIV-1IIIB was preincubated with the peptides for 3 hours and then added to cells (5000 cells/well) in tissue culture plates. Controls were IF (Infected, cells cultured with HIV-1 and without peptides), UIF (Uninfected, cells cultured without HIV-1 and without peptides) and UIF+Ch (Uninfected+peptides derived from natural casein, cells cultured in the presence of peptides derived from natural casein {50-1000 μg per ml}) to test the effect of peptides derived from natural casein and synthetic peptides derived from casein on cell viability and growth. Cells were counted for viability and proliferation rate on day 7, 10 and day 14 post infection (the day of P24 antigen culture supernatant harvest). Cells and tissue culture supernatants (media) were harvested and lysed immediately in 1/10 volume of 10% Triton X-100. […]
# [4] = test system: murine primary bone marrow cells; assay: Multipotential colonies (CFU-GEMM) from murine bone marrow cells, colony and differential counts; assay type: cell-based, mouse; conditions: for megakaryocyte formation and development: 8 days treatment; for macrophages, % of total cell count: approximately 17% in unincubated controls
# Procedure: Stimulation of Hematopoiesis from Bone Marrow (BM) Cells in Culture:
# Proliferation of megakaryocytes in multipotential colonies (CFU-GEMM) from murine Bone Marrow cells: Primary bone marrow cells (1×10^5 per ml) from 8-12 week-old C3H/HeJ mice were grown in serum-free methyl cellulose-IMDM medium for 8-9 days at 5% CO2, 95% air, at 37° C. The medium, appropriate for the growth of multipotential colonies (CFU-GEMM), contained 1% BSA (Sigma), 10^−4 M thioglycerol (Sigma), 2.8×10^−4 M human transferrin (TF, Biological industries, Israel), 10% WEHI-CM as a source of IL-3 and 2 units per ml erythropoietin (rhEPO, R & D Systems, Minneapolis). Colonies were scored after 8-9 days using an Olympus dark field microscope. They were picked with a micropipette, cytocentrifuged and stained with May-Grunwald-Giemsa for differential counts. At least 700 cells were counted for each preparation. […]
# Proliferation of Macrophage cells in CFU-GEMM: Multipotent (CFU-GEMM colonies grown from primary bone marrow cells as described for the assay of megakaryocyte proliferation above were collected, stained and counted for macrophage cells. At least 700 cells were counted for each preparation.
# Proliferation of Red Blood Cells in CFU-GEMM: Multipotent (CFU-GEMM) colonies grown from primary bone marrow cells as described for the assay of megakaryocyte proliferation above were collected, stained and counted for red blood cells. At least 700 cells were counted for each preparation. […]
# [5] = test system: lethally irradiated, bone marrow-reconstituted mice; assay: Leukocyte and platelet reconstitution in bone marrow transplant recipient mice; assay type: in vivo, mouse; conditions: for platelet counts: 800 cGy, 100 μg per mouse i.p. on days 4-7; for peripheral white blood cell counts: BALB/c, 600 cGy, 1 mg per mouse intraperitoneal
# Procedure: Leukocyte and platelet reconstitution in bone marrow transplant recipient mice: BALB/c mice were lethally irradiated at a source to skin distance of 70 cm, dosage of 50 cGy per minute, for a total of 600 cGy. The irradiated mice were […] casein, synthetic peptides derived from casein (13-26 amino acids, see Table 3 above), or human serum albumin (controls), following a double-blinded protocol. Leukocyte reconstitution was determined according to cell count in peripheral blood collected at indicated intervals from 6 to 12 days post treatment. Platelet reconstitution was determined by cell count in blood collected from the retro orbital plexus, into heparinized capillaries, at indicated intervals from day 6 to day 15 post treatment.
# In an additional series of experiments, CBA mice were lethally irradiated (900 cGy), reconstituted and treated with peptides derived from natural casein or human serum albumin as described above. Platelet reconstitution was assayed as mentioned above.
# In a third series of experiments, the mice were irradiated (800 cGy), reconstituted and injected intraperitoneally with 100 μg synthetic peptides derived from casein (peptides 3a and 4P, representing the first 6 and 12 amino acids of the N terminus of αS1 casein, respectively—see Table 3 above) daily, on days 4, 5, 6 and 7 post-transplantation. Platelet reconstitution was assayed at 10 and 12 days post-transplantation.
# [6] = test system: Non-Obese Diabetic (NOD) mice; assay: Intraperitoneal Glucose Tolerance Test (IPGTT) in NOD mice; assay type: in vivo, mouse; set-up: IPGT TEST 0 min. (pre-load), plasma glucose: unit not given here; conditions: individual healthy NOD mice, 25 weeks after peptides
# Procedure: Intraperitoneal Glucose Tolerance Test (IPGTT):
# The glucose tolerance test is the definitive method for investigating glucose metabolism and diabetic tendencies in mammals. Twenty five (25) weeks after receiving Synthetic peptides derived from casein, response to a glucose load was assessed with an intraperitoneal glucose tolerance test. Glucose injection consisted of 1 g/kg body weight. Glycemic values were determined from blood drawn prior to test (0 minutes) and 60 minutes after loading.
# [7] = 12 days post transplantation, controls 676 (4P) and 461 (3a)
# [8] = 100 μg once weekly for 5 weeks, evaluated after 25 weeks
substance,measurement,setting,value
RPK [1P],onset of glucosuria,[1],effectively prevented
same,effect on NK activity in PBSC cultures from healthy human donors,[2],No significant effect
same,patients (of 5 tested) responding,[2]; 25 μg/ml peptide concentration,3
same,patients (of 5 tested) responding,[2]; 100 μg/ml peptide concentration,1
same,patients (of 5 tested) responding,[2]; 250 μg/ml peptide concentration,1
same,lymphocyte cell numbers,"[3]; 100 μg per ml, 3 hours pretreatment, infected control 1.06×10^6",1.29 ×10^6
same,"HIV-1 infection level, P24 antigen","[3]; 100 μg/ml, 7 days post infection",0.17 ng P24 Antigen/ml
same,lymphocyte cell numbers,"[3]; 500 μg per ml, 3 hours pretreatment, infected control 1.06×10^6",2.01 ×10^6
same,"HIV-1 infection level, P24 antigen","[3]; 500 μg/ml, 7 days post infection",0.14 ng P24 Antigen/ml
same,resistance of CEM cells to HIV-1 infection (in words),[3]; 3 hours pretreatment,significant degree of resistance to infection
RPKH [2P],onset of glucosuria,[1],effectively prevented
same,"red blood cells, % of total cell count",[4]; 53% in unincubated controls,71%
RPKHPI [4P],megakaryocyte formation and development,[4],significant increase
same,increase of platelet counts over untreated controls,[5]; 12 days post transplantation,29%
same,platelet counts,[5]; [7],872000 mL⁻¹
same,cell counts,"[3]; 25 μg per ml, 3 hours pretreatment, infected control 1.06×10^6",1.26 ×10^6
same,cell numbers,"[3]; 250 μg per ml, 3 hours preincubation, infected control 1.06×10^6",1.59 ×10^6
same,resistance of CEM cells to HIV-1 infection (in words),[3]; 3 hours pretreatment,significant effect on the susceptibility
same,"viral particles by HIV-P24 antigen assay vs untreated, infected control",[3]; 7 days post infection,dose dependent reduction
RPKHPIK [5P],"macrophages, % of total cell count",[4],~30%
RPKHPIKH [Y],Healthy/Total* (healthy and well = sugar not detected in urine),[1]; [8],1/5
RPKHPIKHQG [1a],Healthy/Total* (healthy and well = sugar not detected in urine),[1]; [8],1/5
same,"IPGT TEST 0 min. (pre-load), plasma glucose",[6],88
RPKHPIKHQGLP [3a],prevention of glucosuria (in words),[1]; [8],highly effective
same,Healthy/Total* (healthy and well = sugar not detected in urine),[1]; [8],3/5
same,megakaryocyte formation and development,[4],significant increase
same,increase of platelet counts over untreated controls,[5]; 10 days post transplantation,up to 35.5%
same,platelet counts,"[5]; 10 days post transplantation, control 169",229000 mL⁻¹
same,increase of platelet counts over untreated controls,[5]; 12 days post transplantation,up to 13.5%
same,platelet counts,[5]; [7],622000 mL⁻¹
RPKHPIKHQGLPQ [A],Healthy/Total* (healthy and well = sugar not detected in urine),[1]; [8],2/5
same,peripheral white blood cell counts,"[5]; day 10, albumin control 16.7",17.2 ×10^6 cells per dl
same,peripheral white blood cell counts,"[5]; day 12, albumin control 46.4",65.4 ×10^6 cells per dl
RPKHPIKHQGLPQE [B],Healthy/Total* (healthy and well = sugar not detected in urine),[1]; [8],2/5
same,"IPGT TEST 0 min. (pre-load), plasma glucose",[6],130
same,"IPGT TEST 60 min. post load, plasma glucose",[6]; glucose 1 g/kg i.p.,97 mmol/L
RPKHPIKHQGLPQEVL [D],Healthy/Total* (healthy and well = sugar not detected in urine),[1]; [8],2/5
same,"macrophages, % of total cell count",[4],~30%
RPKHPIKHQGLPQEVLN,megakaryocyte formation and development,[4],significant increase
same,peripheral white blood cell counts,"[5]; day 10, albumin control 16.7",27.4 ×10^6 cells per dl
same,peripheral white blood cell counts,"[5]; day 12, albumin control 46.4",52.0 ×10^6 cells per dl
RPKHPIKHQGLPQEVLNE [F],megakaryocyte formation and development,[4],significant increase
RPKHPIKHQGLPQEVLNEN,megakaryocyte formation and development,[4],significant increase
RPKHPIKHQGLPQEVLNENL,megakaryocyte formation and development,[4],significant increase
RPKHPIKHQGLPQEVLNENLL,Healthy/Total* (healthy and well = sugar not detected in urine),[1]; [8],2/5
same,megakaryocyte formation and development,[4],significant increase
RPKHPIKHQGLPQEVLNENLLR [J],Healthy/Total* (healthy and well = sugar not detected in urine),[1]; [8],3/5
RPKHPIKHQGLPQEVLNENLLRF,Healthy/Total* (healthy and well = sugar not detected in urine),[1]; [8],2/5
same,"macrophages, % of total cell count",[4],~30%
RPKHPIKHQGLPQEVLNENLLRFF,megakaryocyte formation and development,[4],significant increase

# — patent publication US7741274B2, “Casein derived peptides and uses thereof in therapy” (priority 2000, dated 2010)
